Test results: US5387602A, “1.5-diphenyl-3-(N-hydroxycarbamoyloxyalkyl)pyrazoles” (Ortho Pharmaceutical Corporation, priority 1993, dated 1995)

How the values were obtained:
[1] = target: T1, RBL-1 Cell 5-Lipoxygenase (Rattus norvegicus, UniProt P12527); test: Procedure II: 5-lipoxygenase inhibition in disrupted RBL-1 cells (supernatant as enzyme source); assay type: biochemical; conditions: for IC50: read-out: IC50 5-LO (Procedure II)
T1 construct: the supernatant was saved as the source of enzymes; endogenous in cells; host or cells: RBL-1 (rat basophilic leukemia cells), 10,000×g supernatant of homogenate
T1 sequence (P12527 1-673): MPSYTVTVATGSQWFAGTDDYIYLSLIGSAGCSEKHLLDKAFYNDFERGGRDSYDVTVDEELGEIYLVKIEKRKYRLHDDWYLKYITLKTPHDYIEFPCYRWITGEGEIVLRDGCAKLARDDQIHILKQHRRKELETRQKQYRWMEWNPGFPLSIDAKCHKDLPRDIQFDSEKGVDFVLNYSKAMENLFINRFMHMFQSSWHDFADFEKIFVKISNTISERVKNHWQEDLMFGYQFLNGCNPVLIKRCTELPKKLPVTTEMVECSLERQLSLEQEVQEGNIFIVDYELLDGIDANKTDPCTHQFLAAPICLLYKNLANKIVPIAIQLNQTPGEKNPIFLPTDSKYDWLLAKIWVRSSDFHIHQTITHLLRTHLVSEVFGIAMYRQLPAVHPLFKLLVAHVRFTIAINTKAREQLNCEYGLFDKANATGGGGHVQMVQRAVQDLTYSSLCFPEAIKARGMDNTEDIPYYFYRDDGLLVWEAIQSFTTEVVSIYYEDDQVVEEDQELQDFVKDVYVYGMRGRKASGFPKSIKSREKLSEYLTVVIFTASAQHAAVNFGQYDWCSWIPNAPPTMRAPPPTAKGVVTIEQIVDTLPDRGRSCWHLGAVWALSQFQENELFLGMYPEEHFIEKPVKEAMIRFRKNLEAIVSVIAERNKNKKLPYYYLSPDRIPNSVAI
Procedure: RBL-1 Cell 5-Lipoxygenase and Cyclooxygenase
Rat basophilic leukemia cells (RBL-1; 5×10^7 viable cells/mL) were disrupted by homogenization on ice (four 20 sec bursts) with a Brinkman polytron. Complete cell breakage was verified microscopically. The homogenate was then centrifuged at 10,000×g for 48 minutes at 4° C. The pellet was discarded and the supernatant was saved as the source of enzymes. The supernatant was pre-incubated for five minutes at 37° C. in the presence of 2 mM of CaCl2 and compound or vehicle (1% DMSO). The conversion of AA into 5-LO products was initiated by adding 10 μL (50 μCi) of 1-^14 C-AA to each tube and incubated at 37° C. for 20 minutes. The reaction was stopped by adjusting the pH of each sample to 3 to 3.5 with 2M formic acid. Samples were extracted with three volumes of chloroform to isolate the products of 5-LO formed during the reaction. Fractions were dried under nitrogen, then resuspended in 40 μL of chloroform and spotted onto silica gel HL plates. The plates were developed in A-9 solvent. The dried plates were analyzed using a Bioscan Imaging TLC scanner to determine the percentage of radiolabelled AA converted to 5-HETE in each sample.
(§1) In the following tables, the superscripts indicate the number of experiments and, unless otherwise stated, the dose at which % inhibition is reported is 3 MPK.

CO in intact RBL-1 cells = target: T2, CO in intact RBL-1 cells (Rattus norvegicus, UniProt Q63921); test: Procedure III: inhibition of CO in intact RBL-1 cells; assay type: cell-based
T2 construct: 5-LO and CO in intact RBL-1 cells; endogenous in cells; host or cells: RBL-1 (rat basophilic leukemia cells), intact
T2 sequence (Q63921 27-602): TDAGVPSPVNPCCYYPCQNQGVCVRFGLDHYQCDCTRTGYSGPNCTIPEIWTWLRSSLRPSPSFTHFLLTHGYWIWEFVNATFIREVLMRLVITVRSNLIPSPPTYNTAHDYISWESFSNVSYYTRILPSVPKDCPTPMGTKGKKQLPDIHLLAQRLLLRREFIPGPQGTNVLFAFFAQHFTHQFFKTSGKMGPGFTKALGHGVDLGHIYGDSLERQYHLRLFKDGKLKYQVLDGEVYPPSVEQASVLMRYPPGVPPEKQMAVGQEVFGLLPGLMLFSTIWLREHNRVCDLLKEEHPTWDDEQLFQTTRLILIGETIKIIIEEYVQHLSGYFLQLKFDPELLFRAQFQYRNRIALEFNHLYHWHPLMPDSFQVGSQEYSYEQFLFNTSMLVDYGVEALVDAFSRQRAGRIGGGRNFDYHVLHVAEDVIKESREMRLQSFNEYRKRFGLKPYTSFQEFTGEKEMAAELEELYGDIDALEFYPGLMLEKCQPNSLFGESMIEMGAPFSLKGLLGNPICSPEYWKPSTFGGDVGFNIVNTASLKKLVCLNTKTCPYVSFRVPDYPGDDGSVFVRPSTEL
Procedure: (§2) The ability to inhibit 5-LO and CO in intact RBL-1 cells was also evaluated. RBL-1 cells were maintained in culture in minimal essential medium (Bio*Whittaker, Walkersville, Md.), containing 12.5% fetal calf serum, 10 mg/mL streptomycin, 10 I.U./mL penicillin G, […] gentamycin and 2 mM L-glutamine (Bio*Whittaker, Walkersville, Md.). Cells were collected by centrifugation, washed once in HBSS, and resuspended at a concentration of 1×10^5 cells/mL. Cells were incubated in the presence of vehicle or drug then centrifuged at 800×g for 10 minutes at 4° C. The supernatant was removed by aspiration and the cells were resuspended in 0.5 mL of HBSS. The reaction was started by the addition of 20 μg/mL of calcium ionophore A-23187 (mixed calcium and magnesium salts, Calbiochem, La Jolla, Calif.) and allowed to proceed for 15 minutes, then stopped by plunging the tubes into a slush ice bath. The conversion of AA to 5-LO products was initiated by the addition of 10 μL (50 uCi) of 1-^14 C-AA. Products were isolated by acidification and extraction, followed by thin layer chromatography analysis as described above. Radioactive areas corresponding to authentic 5-LO and CO products were quantitated by the Bioscan 2000 Imaging System.
as §1

[2] = target: T3, 5-LO in intact RBL-1 cells (Rattus norvegicus, UniProt P12527); test: Procedure III: inhibition of 5-LO in intact RBL-1 cells; assay type: cell-based
T3 construct: 5-LO and CO in intact RBL-1 cells; endogenous in cells; host or cells: RBL-1 (rat basophilic leukemia cells), intact
T3 sequence (P12527 1-673): T1 sequence (P12527 1-673)
Procedure: as §2, §1

% INHIBITION 5-LO (Procedure II) [1]	IC50 [1]	IC50 (CO in intact RBL-1 cells)	IC50 [2]	Structure (SMILES)
20%	1270 nM	1400 nM	24200 nM	COc1ccc(-n2nc(COC(=O)NO)cc2-c2ccc(Cl)cc2)cc1 [1-A]
85%	480 nM	380 nM	6100 nM	COc1ccc(-n2nc(COC(=O)N(C)O)cc2-c2ccc(Cl)cc2)cc1 [1-B]
88%	1020 nM	540 nM	10600 nM	COc1ccc(-n2nc(COC(=O)N(O)C(C)C)cc2-c2ccc(Cl)cc2)cc1 [1-C]
28%	840 nM	2400 nM	25900 nM	COc1ccc(-n2nc(COC(=O)NO)c(Br)c2-c2ccc(Cl)cc2)cc1 [1-D]
85%	280 nM	220 nM	1210 nM	COc1ccc(-n2nc(COC(=O)N(C)O)c(Br)c2-c2ccc(Cl)cc2)cc1 [1-E]
63%	120 nM	1900 nM	3600 nM	COc1ccc(-n2nc(COC(=O)N(O)C(C)C)c(Br)c2-c2ccc(Cl)cc2)cc1 [1-F]
25%	750 nM	2200 nM	15900 nM	COc1ccc(-n2nc(COC(=O)NO)c(Cl)c2-c2ccc(Cl)cc2)cc1 [1-G]
83%	< 100 nM	390 nM	2000 nM	COc1ccc(-n2nc(COC(=O)N(C)O)c(Cl)c2-c2ccc(Cl)cc2)cc1 [1-H]
83%	230 nM	1970 nM	2350 nM	COc1ccc(-n2nc(COC(=O)N(O)C(C)C)c(Cl)c2-c2ccc(Cl)cc2)cc1 [1-I]
33%	1750 nM	170 nM	26000 nM	COc1ccc(-n2nc(COC(=O)NO)cc2-c2ccc(C)cc2)cc1 [1-J]
58%	300 nM	30 nM	3600 nM	COc1ccc(-n2nc(COC(=O)N(C)O)cc2-c2ccc(C)cc2)cc1 [1-K]
86%	480 nM	20 nM	3800 nM	COc1ccc(-n2nc(COC(=O)N(O)C(C)C)cc2-c2ccc(C)cc2)cc1 [1-L]
63%	5300 nM	860 nM	21500 nM	COc1ccc(-n2nc(COC(=O)NO)c(Br)c2-c2ccc(C)cc2)cc1 [1-M]
74%	410 nM	80 nM	3460 nM	COc1ccc(-n2nc(COC(=O)N(C)O)c(Br)c2-c2ccc(C)cc2)cc1 [1-N]
81%	180 nM	860 nM	5120 nM	COc1ccc(-n2nc(COC(=O)N(O)C(C)C)c(Br)c2-c2ccc(C)cc2)cc1 [1-O]
30%	890 nM	2500 nM	17500 nM	COc1ccc(-n2nc(COC(=O)NO)c(Cl)c2-c2ccc(C)cc2)cc1 [1-P]

% INHIBITION 5-LO (Procedure II) [1]	IC50 [1]	IC50 (CO in intact RBL-1 cells)	IC50 [2]	Structure (SMILES)
88%	50 nM	150 nM	1800 nM	COc1ccc(-n2nc(COC(=O)N(C)O)c(Cl)c2-c2ccc(C)cc2)cc1 [1-Q]
87%	100 nM	4100 nM	2700 nM	COc1ccc(-n2nc(COC(=O)N(O)C(C)C)c(Cl)c2-c2ccc(C)cc2)cc1 [1-R]
82%	60 nM	800 nM	1360 nM	COc1ccc(-n2nc(CCOC(=O)N(C)O)cc2-c2ccc(Cl)cc2)cc1 [2-A]
84%	100 nM	180 nM	1980 nM	COc1ccc(-n2nc(CCOC(=O)N(O)C(C)C)cc2-c2ccc(Cl)cc2)cc1 [2-B]
69%	470 nM	2700 nM	4200 nM	COc1ccc(-n2nc(CCOC(=O)N(C)O)c(Cl)c2-c2ccc(Cl)cc2)cc1 [2-C]
70%	70 nM	1500 nM	2300 nM	COc1ccc(-n2nc(CCOC(=O)N(O)C(C)C)c(Cl)c2-c2ccc(Cl)cc2)cc1 [2-D]
72%	190 nM	2200 nM	1100 nM	COc1ccc(-n2nc(CCOC(=O)N(C)O)c(Br)c2-c2ccc(Cl)cc2)cc1 [2-E]
71%	140 nM	2400 nM	1600 nM	COc1ccc(-n2nc(CCOC(=O)N(O)C(C)C)c(Br)c2-c2ccc(Cl)cc2)cc1 [2-F]
82%	640 nM	80 nM	920 nM	COc1ccc(-n2nc(CCOC(=O)N(C)O)cc2-c2ccc(C)cc2)cc1 [2-G]
83%	60 nM	40 nM	1480 nM	COc1ccc(-n2nc(CCOC(=O)N(O)C(C)C)cc2-c2ccc(C)cc2)cc1 [2-H]
78%	100 nM	630 nM	1080 nM	COc1ccc(-n2nc(CCOC(=O)N(C)O)c(Cl)c2-c2ccc(C)cc2)cc1 [2-I]
74%	30 nM	1100 nM	3100 nM	COc1ccc(-n2nc(CCOC(=O)N(O)C(C)C)c(Cl)c2-c2ccc(C)cc2)cc1 [2-J]
59%	680 nM	3200 nM	18700 nM	COc1ccc(-n2nc(CCOC(=O)NO)c(Br)c2-c2ccc(C)cc2)cc1 [2-K]
75%	90 nM	1800 nM	1200 nM	COc1ccc(-n2nc(CCOC(=O)N(C)O)c(Br)c2-c2ccc(C)cc2)cc1 [2-L]
83%	3000 nM	4600 nM	30000 nM	COc1ccc(-n2nc(CCCOC(=O)NO)cc2-c2ccc(Cl)cc2)cc1 [3-A]
